{"source": "patent US20230190797A1", "about": "“COMPOSITIONS AND METHODS FOR ADOPTIVE CELL THERAPY” (MEMORIAL SLOAN KETTERING CANCER CENTER, priority 2017, published 2023)", "key": {"[1]": {"experiment": "Cell permeability in CACO-2 cells", "type": "in vitro ADME", "details": "human, read-out: Efflux Ratio (B-A/A-B)"}, "[2]": {"test_system": "HEK293T cells expressing CPG2 variants", "experiment": "Viability of HEK293T cells expressing CPG2 variants exposed to prodrug", "type": "cell-based, human", "experimental": "FIG. 9 provides exemplary data showing that that cell-secreted and transmembrane CPG2 expressed in stably transfected cells activates an AIS prodrug. Expression of CPG2 without a signal peptide (CPG2nosigp) was employed as a control. 293t cells stably transfected with CPG2 variants were exposed to P-AMS (1 μM) for 48 hours and analyzed by bright field microscopy (FIG. 9A). Cells were exposed to varying concentrations of P-AMS and cell viability was analyzed at 48 hr post treatment (FIG. 9B).\nExpression of CPG2 without a signal peptide (CPG2nosigp) was employed as a control. HEK293t cells stably transfected with CPG2 variants were exposed to P-AMS (1 μM) for 48 hours and analyzed by bright field microscopy (FIG. 9A). Cells were exposed to varying concentrations of P-AMS and cell viability was analyzed at 48 hr post treatment (FIG. 9B)."}, "[3]": {"test_system": "endogenous glutamate carboxypeptidase expressed in human prostate cells", "experiment": "Prodrug stability towards endogenous glutamate carboxypeptidase, LNCap viability", "type": "cell-based", "from_the_text": "This prodrug/drug combination was chosen for further development of the SEAKER systems."}, "[4]": {"details": "mouse, in vivo"}, "in vivo": {"experiment": "in vivo", "details": "NOD, mouse"}, "HEK293T (kidney)": {"test_system": "HEK293T (kidney)", "experiment": "CellTitre Glo in vitro cytotoxicity, HEK293T", "type": "cell-based, human", "details": "prodrug versus AMS"}, "primary T-cells": {"test_system": "primary T-cells", "experiment": "CellTitre Glo in vitro cytotoxicity, primary T cells", "type": "cell-based", "details": "prodrug versus AMS"}, "[5]": {"test_system": "myeloid leukemia cell line SET2", "experiment": "Cytotoxicity, SET2", "type": "cell-based", "details": "Set2, prodrug versus AMS"}, "SET2 cells": {"test_system": "SET2 cells", "experiment": "SET2 viability with prodrug plus enzyme or enzyme-containing supernatant", "type": "cell-based", "details": "increasing prodrug", "experimental": "Recombinant CPG2 protein was initially synthesized, purified (FIGS. 18A and 18B), and incubated with increasing concentrations of prodrug in a glutamate release assay (FIG. 17C). Mass spectrometry was used to determine that the glutamate moiety was released from all of the glutamate prodrugs.\nCell viability was measured by CellTitre-Glo® luminescence assay.\nTo determine to respective enzyme output of the Beta-lactamase constructs relative to the previous CPG2 constructs, a quantitative sandwich ELISA was used to determine the concentration (ng/mL) of purified recombinant CPG2, and a quantitative nitrocefin assay was used to determine the concentration (ng/mL) of purified recombinant Beta-lactamase (FIG. 25A). Cell viability was measured by CellTitre-Glo® luminescence in the presence of prodrug (glut-AMS or ceph-AMS) and varying concentrations of purified recombinant CPG2 or Beta-lactamase (FIG. 25B)."}}, "note": "Like-named read-outs stand apart in the source and are kept apart here."}
{"smiles": "CN(C)C(=O)C(CCN1CCC(O)(c2ccc(Cl)cc2)CC1)(c1ccccc1)c1ccccc1", "note": "[Loperamide]", "values": [{"measurement": "efflux ratio", "setting": "[1]; Caco-2, with Ver (concentration not stated), + Ver", "result": 0.7}, {"measurement": "efflux ratio", "setting": "[1]; Caco-2, without Ver", "result": 7.7}]}
{"smiles": "NS(=O)(=O)OC[C@H]1O[C@@H](n2cnc3c(NC(=O)N[C@@H](CCC(=O)O)C(=O)O)ncnc32)[C@H](O)[C@@H]1O", "note": "[P-AMS, ((9-((2R,3R,4S,5R)-3,4-dihydroxy-5-((sulfamoyloxy)methyl)tetrahydrofuran-2-yl)-9H-purin-6-yl)carbamoyl)-L-glutamic acid]", "values": [{"measurement": "activation of prodrug by cells expressing CPG intracellularly", "setting": "[2]; HEK293T cells expressing CPG intracellularly", "result": "not activated"}, {"measurement": "cell death of cells expressing secreted or transmembrane CPG2", "setting": "[2]; stably transfected HEK293T, cell-secreted and transmembrane CPG2, 48 hr, no-signal-peptide control did not", "result": "significant cell death"}, {"measurement": "stability in presence of endogenous glutamate carboxypeptidase", "setting": "[3]", "result": "remained stable"}, {"measurement": "toxicity in mice", "setting": "[4]", "result": "non-toxic"}, {"measurement": "half-life", "setting": "in vivo", "result": "30 to 40", "unit": "min"}]}
{"smiles": "Nc1ncnc2c1ncn2[C@@H]1O[C@H](COS(=O)(=O)NCC2=C(C(=O)O)N3C(=O)[C@@H](NC(=O)Cc4cccs4)[C@H]3SC2)[C@@H](O)[C@H]1O", "note": "[ceph-AMS]", "values": [{"measurement": "Selective Index, HEK293t", "setting": "HEK293T (kidney)", "result": "~3"}, {"measurement": "Selective Index, Human T cell", "setting": "primary T-cells", "result": ">6"}, {"measurement": "Selective Index, Set2", "setting": "[5]", "result": "~64"}, {"measurement": "SET2 cell viability with Beta-lactamase supernatant", "setting": "SET2 cells", "result": "significant decrease in cell viability"}]}
